Measured values taken from patent publication US20220289732A1, “HETEROCYCLIC WDR5 INHIBITORS AS ANTI-CANCER COMPOUNDS” (NOVARTIS AG, priority 2019, published 2022).

Columns and labels:
[1] = target: WDR5 (Homo sapiens, UniProt P61964); assay: WDR5 HTRF binding assay; details: read-out: (a) WDR5 HTRF Pep Val v.1[Inhibitor/IC50]Qualified AC50
Method in brief: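 In this HTRF displacement format, biotinylated MLL1 WIN peptide (3762-3773, 20 nM) binds WDR5 (6 nM) in 25 mM Hepes pH 7.5 with 100 mM NaCl, 2 mM DTT and 0.1% BSA for 20 min at rt. Detection used streptavidin-APC/anti-His-Eu for 1 hr. IC50 came from dose-response fits of normalized signal; 15 nM biotin-PEG-His peptide served as counter assay.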

[2] = target: wild type MLL1 four-member complex (MLL1-4C) (Homo sapiens, UniProt P61964); assay: MLL1 LC-MS assay (SAH production); type: biochemical; details: read-out: (b) MLL LCMS Peptide Val.v.1 Qualified AC50
Method in brief: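 SAH formation, measured by LC-MS/MS after a TFA quench containing d4-SAH, was normalised to no-compound and no-enzyme controls and fitted to a dose-response curve for IC50. Reactions ran 120 min at rt (pH 8.0 Tris buffer) with final 30 nM MLL1 four-member complex, 2.5 μM SAM and 10 μM biotinylated H3[1-21] peptide, after a 20-min enzyme/SAM-compound preincubation.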

[3] = system: MV4-11 cells; assay: MV4-11 6-day cell growth CTG (CellTiter-Glo) assay; type: cell-based; details: Homo sapiens, MV4-11, 144 h, 6 days, read-out: (c) MLL/WDR5 cell proliferation assay//MLL/WDR5 proliferation MV4:11 Qualified AC50
Method in brief: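 IC50 comes from a dose-response fit of % inhibition relative to DMSO controls, with viable cells measured by CellTiter-Glo luminescence. Compounds were tested over 12 points (1:3, starting at 50 μM final) on MV4-11 cells plated at 300/well and grown 6 days.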

SMILES	IC50 [1] [nM]	AC50 [2] [nM]	AC50 [3] [nM]
CCOc1cc(CN2CCc3c(cc(CCN(C)CC)cc3-c3cc(C)nnc3C)C2=O)ncc1C#N [Example 189, 6-((5-(3,6-dimethylpyridazin-4-yl)-7-(2-(ethyl(methyl)amino)ethyl)-1-oxo-3,4-dihydroisoquinolin-2(1H)-yl)methyl)-4-ethoxynicotinonitrile]	< 10	10 to 1000	10 to 1000
CCOc1cc([C@H](C)N2CCc3c(cc(CCN4CC[C@H]4C)cc3-c3ccc(F)nc3C)C2=O)ncc1C#N [Example 235]	< 10	10 to 1000	10 to 1000
CNc1nccn1Cc1cc(-c2cc(CO)cnc2Cl)c2ccn(Cc3cc4ccccc4[nH]3)c(=O)c2c1 [Example 108, 2-((1H-indol-2-yl)methyl)-5-(2-chloro-5-(hydroxymethyl)pyridin-3-yl)-7-((2-(methylamino)-1H-imidazol-1-yl)methyl)isoquinolin-1(2H)-one]	10 to 1000	10 to 1000	10 to 1000
CCOc1cc(CN2CCc3c(cc(CCN4CC[C@H]4C)cc3-c3ccc(F)nc3C)C2=O)ncc1C#N [Example 245]	10 to 1000	10 to 1000	10 to 1000
CCOc1cc(CN2CCc3c(CN4CC(C)C4)cc(Cn4ccnc4NC)cc3C2=O)cnc1C#N [Example 25, 3-ethoxy-5-((7-((2-(methylamino)-1H-imidazol-1-yl)methyl)-5-((3-methylazetidin-1-yl)methyl)-1-oxo-3,4-dihydroisoquinolin-2(1H)-yl)methyl)picolinonitrile]	10 to 1000	10 to 1000	10 to 1000
CCOc1cc(C(C)N2CCc3c(cc(CCN(C)CC)cc3-n3ccnc3)C2=O)ncc1C#N (stereo not drawn) [Example 208]	10 to 1000	10 to 1000	1000 to 25000
CCOc1cc(CN2CCc3c(cc(CCN(C)CC)cc3-c3cc(C)cnc3Cl)C2=O)ncc1C#N [Example 112, 6-((5-(2-chloro-5-methylpyridin-3-yl)-7-(2-(ethyl(methyl)amino)ethyl)-1-oxo-3,4-dihydroisoquinolin-2(1H)-yl)methyl)-4-ethoxynicotinonitrile]	< 10	10 to 1000	10 to 1000
CCOc1cc([C@H](C)N2CCc3c(cc(CCN4CC(F)C4)cc3-c3cn(C)c(=O)cc3C(F)(F)F)C2=O)ncc1C#N [Example 249]	10 to 1000	10 to 1000	10 to 1000
CCN(C)CCc1cc2c(c(-c3ccc(F)nc3C)c1)CCN(Cc1cnc(F)c(OC)c1)C2=O [Example 137, 7-(2-(ethyl(methyl)amino)ethyl)-5-(6-fluoro-2-methylpyridin-3-yl)-2-((6-fluoro-5-methoxypyridin-3-yl)methyl)-3,4-dihydroisoquinolin-1(2H)-one]	< 10	10 to 1000	10 to 1000
CCOc1cc(C(C)N2CCc3c(cc(CCN(C)CC)cc3-c3cc(C)nnc3C)C2=O)ncc1C (stereo not drawn) [Example 211, 5-(3,6-dimethylpyridazin-4-yl)-2-(1-(4-ethoxy-5-methylpyridin-2-yl)ethyl)-7-(2-(ethyl(methyl)amino)ethyl)-3,4-dihydroisoquinolin-1(2H)-one]	< 10	10 to 1000	10 to 1000
CNc1nccn1Cc1cc(CN2CC(F)(F)C2)c2c(c1)C(=O)N([C@@H](C)c1cc(OC)c(F)cn1)CC2 [Example 48, (S)-5-((3,3-difluoroazetidin-1-yl)methyl)-2-(1-(5-fluoro-4-methoxypyridin-2-yl)ethyl)-7-((2-(methylamino)-1H-imidazol-1-yl)methyl)-3,4-dihydroisoquinolin-1(2H)-one]	10 to 1000	10 to 1000	10 to 1000
CNc1nccn1Cc1cc2c(c(-c3cc(CO)cnc3Cl)c1)CCN(Cc1cc(F)cc(Cl)c1)C2=O [Example 67, 5-(2-chloro-5-(hydroxymethyl)pyridin-3-yl)-2-(3-chloro-5-fluorobenzyl)-7-((2-(methylamino)-1H-imidazol-1-yl)methyl)-3,4-dihydroisoquinolin-1(2H)-one]	10 to 1000	10 to 1000	10 to 1000
CCOc1cc(CN2CCc3c(CN(C)C)cc(Cn4ccnc4NC)cc3C2=O)cnc1C#N [Example 24, 5-((5-((dimethylamino)methyl)-7-((2-(methylamino)-1H-imidazol-1-yl)methyl)-1-oxo-3,4-dihydroisoquinolin-2(1H)-yl)methyl)-3-ethoxypicolinonitrile]	10 to 1000	10 to 1000	10 to 1000
CCOc1cc(CN2CCc3c(cc(CCN(C)CC)cc3-c3ccc(F)nc3C)C2=O)ncc1C#N [Example 130, 4-ethoxy-6-((7-(2-(ethyl(methyl)amino)ethyl)-5-(6-fluoro-2-methylpyridin-3-yl)-1-oxo-3,4-dihydroisoquinolin-2(1H)-yl)methyl)nicotinonitrile]	< 10	10 to 1000	10 to 1000
CNc1nccn1Cc1cc(CN2CC(F)(F)C2)c2c(c1)C(=O)N([C@@H](C)c1cnc(F)c(OC)c1)CC2 [Example 34, (S)-5-((3,3-difluoroazetidin-1-yl)methyl)-2-(1-(6-fluoro-5-methoxypyridin-3-yl)ethyl)-7-((2-(methylamino)-1H-imidazol-1-yl)methyl)-3,4-dihydroisoquinolin-1(2H)-one]	10 to 1000	10 to 1000	10 to 1000
CNc1nccn1Cc1cc(CN2CC(OC)C2)c2c(c1)C(=O)N([C@@H](C)c1cc(OC)c(F)cn1)CC2 [Example 31, (S)-2-(1-(5-fluoro-4-methoxypyridin-2-yl)ethyl)-5-((3-methoxyazetidin-1-yl)methyl)-7-((2-(methylamino)-1H-imidazol-1-yl)methyl)-3,4-dihydroisoquinolin-1(2H)-one]	10 to 1000	10 to 1000	10 to 1000
CCOc1cc([C@H](C)N2CCc3c(cc(CCN(C)CC)cc3-c3cc(C(C)=O)cnc3C)C2=O)ncc1C#N [Example 185, (S)-6-(1-(5-(5-acetyl-2-methylpyridin-3-yl)-7-(2-(ethyl(methyl)amino)ethyl)-1-oxo-3,4-dihydroisoquinolin-2(1H)-yl)ethyl)-4-ethoxynicotinonitrile]	< 10	10 to 1000	10 to 1000

Second part, led by results:

IC50 [1] [nM]	AC50 [2] [nM]	SMILES	AC50 [3] [nM]
10 to 1000	10 to 1000	CCOc1cc([C@H](C)N2CCc3c(cc(Cn4ccnc4C)cc3-c3nc(C(F)F)nn3C)C2=O)ncc1C#N [Example 293]	10 to 1000
< 10	10 to 1000	CCOc1cc([C@H](C)N2CCc3c(cc(CCN(C)CC)cc3-c3cn4ccnc4cc3C)C2=O)ncc1C#N [Example 190, (S)-4-ethoxy-6-(1-(7-(2-(ethyl(methyl)amino)ethyl)-5-(7-methylimidazo[1,2-a]pyridin-6-yl)-1-oxo-3,4-dihydroisoquinolin-2(1H)-yl)ethyl)nicotinonitrile]	10 to 1000
< 10	10 to 1000	CCOc1cc([C@H](C)N2CCc3c(cc(Cn4ccnc4C)cc3-c3ccnn3C)C2=O)ncc1C#N [Example 279]	10 to 1000
< 10	10 to 1000	CCOc1cc(CN2CCc3c(cc(Cn4ccnc4C)cc3-c3cn(C)c(=O)cc3C(F)F)C2=O)ncc1C#N [Example 299]	10 to 1000
< 10	10 to 1000	CCOc1cc([C@H](C)N2CCc3c(cc(CCN(C)CC)cc3-c3ccc(N)nc3C)C2=O)ncc1C#N [Example 122, (S)-6-(1-(5-(6-amino-2-methylpyridin-3-yl)-7-(2-(ethyl(methyl)amino)ethyl)-1-oxo-3,4-dihydroisoquinolin-2(1H)-yl)ethyl)-4-ethoxynicotinonitrile]	10 to 1000
< 10	10 to 1000	CCOc1cc(C(C)N2CCc3c(cc(Cn4ccnc4C)cc3-c3cn(C)nc3C)C2=O)ncc1C#N (racemic) [Example 261, 6-(1-(5-(1,3-dimethyl-1H-pyrazol-4-yl)-7-((2-methyl-1H-imidazol-1-yl)methyl)-1-oxo-3,4-dihydroisoquinolin-2(1H)-yl)ethyl)-4-ethoxynicotinonitrile]	10 to 1000
< 10	10 to 1000	CCOc1cc([C@H](C)N2CCc3c(cc(Cn4ccnc4C)cc3-c3cn(C(F)F)nc3C)C2=O)ncc1C#N [Example 286]	< 10
< 10	10 to 1000	CCOc1cc([C@H](C)N2CCc3c(cc(CCN4C[C@@H](O)[C@H]4C)cc3-c3cn(C)c(=O)cc3C)C2=O)ncc1C#N [Example 216]	10 to 1000
< 10	10 to 1000	CCOc1cc([C@H](C)N2CCc3c(cc(Cn4cc(C)nc4C)cc3-c3cn(C)nc3C)C2=O)ncc1C#N [Example 273]	10 to 1000
< 10	10 to 1000	CCOc1cc([C@H](C)N2CCc3c(cc(Cn4ccnc4C)cc3-c3cn(C)c(=O)cc3C(F)F)C2=O)ncc1C#N [Example 285]	< 10
